One data set addresses T1, human CB2R (Homo sapiens, UniProt P34972).
T1 construct: host or cells: CHO-K1 (CHOK1hCB2_bgal)
The experiment in a line: [3H]CP55,940 displacement assay on CHO membranes, CB2R. The data set is classed as binding. Conditions: for hCB2R % displacement at 10 µM: [3H]CP55,940 displacement at 10 µM compound, ± SEM; for Binding to CB2R (in words): radioligand binding assay; for Ki: [3H]CP55,940 displacement.

Data set [1] can be described thus: Photophysical characterization in PBS. In kind it is physicochemical. As to conditions: PBS pH 7.4.
A further data set addresses hCB1R (Homo sapiens, UniProt P21554). The experiment in a line: [3H]CP55,940 displacement assay on CHO membranes, CB1R. The data set is classed as binding. The arrangement: host or cells: CHO-K1 (CHOK1hCB1_bgal). Conditions: for hCB1R % displacement at 10 µM: [3H]CP55,940 displacement at 10 µM compound, ± SEM; for Binding to CB1R (in words): radioligand binding assay; for Ki: [3H]CP55,940 displacement.

[2] abbreviates: hCB2R Ki, CHO membranes stably expressing human CB2R, means of three experiments.
Setting [3] is: CHO membranes stably expressing human CB2R, means of three experiments, read-out: hCB2R Ki.
Where [4] appears, read: CHO membranes stably expressing human CB1R, means of three experiments, read-out: hCB1R Ki.
[5] abbreviates: hCB1R Ki, CHO membranes stably expressing human CB1R, means of three experiments.

Molecules are shown by their SMILES. Read-outs that look alike come from different tables or passages of the source.

T1 sequence (P34972 whole entry): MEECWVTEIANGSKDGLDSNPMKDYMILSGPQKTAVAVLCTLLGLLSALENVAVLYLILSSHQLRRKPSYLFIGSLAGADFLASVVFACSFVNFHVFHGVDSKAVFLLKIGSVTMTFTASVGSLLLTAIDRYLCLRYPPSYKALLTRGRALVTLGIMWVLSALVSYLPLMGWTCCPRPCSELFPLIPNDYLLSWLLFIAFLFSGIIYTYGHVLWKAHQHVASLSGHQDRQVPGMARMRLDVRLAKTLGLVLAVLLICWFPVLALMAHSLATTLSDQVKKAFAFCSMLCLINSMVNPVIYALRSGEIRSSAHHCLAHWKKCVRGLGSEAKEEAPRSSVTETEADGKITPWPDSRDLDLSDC
Chain of hCB1R (P21554 whole entry): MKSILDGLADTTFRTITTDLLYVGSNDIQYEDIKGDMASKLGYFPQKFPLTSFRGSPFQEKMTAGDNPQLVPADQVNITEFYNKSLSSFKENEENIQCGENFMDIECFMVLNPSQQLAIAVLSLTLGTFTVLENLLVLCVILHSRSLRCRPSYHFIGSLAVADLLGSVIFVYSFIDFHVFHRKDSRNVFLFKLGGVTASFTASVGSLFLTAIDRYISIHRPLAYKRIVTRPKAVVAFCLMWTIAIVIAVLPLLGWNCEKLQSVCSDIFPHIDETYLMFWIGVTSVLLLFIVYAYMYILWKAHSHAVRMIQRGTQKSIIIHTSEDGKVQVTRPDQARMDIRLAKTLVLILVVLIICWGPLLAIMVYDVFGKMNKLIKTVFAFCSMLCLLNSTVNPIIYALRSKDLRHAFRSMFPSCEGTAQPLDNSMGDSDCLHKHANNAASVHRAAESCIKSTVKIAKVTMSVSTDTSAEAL

For the compound `CCC(CC)(NC(=O)c1nn(-c2ccc(Cl)cc2Cl)c2c1CCCc1cc(Cl)ccc1-2)C(=O)NCCOCCOCCNC(=O)c1ccc2c(c1)C(=O)OC21c2ccc(N(C)C)cc2Oc2cc(N(C)C)ccc21` [Compound 33], at human CB2R, the “hCB2R % displacement at 10 µM” value stood at 21 ± 3% and the “Binding to CB2R (in words)” value is on record as “did not bind”. At human CB2R (read-out: hCB2R Ki, CHO membranes stably expressing human CB2R, means of three experiments), the Ki was greater than 10 µM. Also, in data set [1], the “Abs (absorbance maximum)” value was determined as 520 nm, the “Em (emission maximum)” value came out at 585 nm and the “QY (quantum yield)” value is listed as 11.10%. At hCB1R, the “hCB1R % displacement at 10 µM” value was -5 ± 1% and the “Binding to CB1R (in words)” value is listed as “did not bind”. Moreover, the Ki on hCB1R (read-out: hCB1R Ki, CHO membranes stably expressing human CB1R, means of three experiments) is greater than 10 µM.

With `CCC(CC)(NC(=O)c1nn(-c2ccc(Cl)cc2Cl)c(-c2ccc(Cl)cc2)c1C)C(=O)NCCOCCNC(=O)OC(C)(C)C` [Compound 23a, tert-Butyl (2-(2-(2-(5-(4-Chlorophenyl)-1-(2,4-dichlorophenyl)-4-methyl-1H-pyrazole-3-carboxamido)-2-ethylbutanamido)ethoxy)ethyl)carbamate], the Ki on human CB2R (setting [2]) is 1.59 µM; at hCB1R (hCB1R pKi ± SEM, CHO membranes) it was 0.0372 µM.

Turning to `CCC(CC)(NC(=O)c1cc(-c2cc(C(F)(F)F)ccc2C(F)(F)F)n(C[C@H]2CCCO2)c1C)C(=O)NCCOCCOCCNc1ccc([N+](=O)[O-])c2nsnc12` [Compound 51, (R)-5-(2,5-Bis(trifluoromethyl)phenyl)-2-methyl-N-(3-((2-(2-(2-((7-nitrobenzo[c][1,2,5]thiadiazol-4-yl)amino)ethoxy)ethoxy)ethyl)carbamoyl)pentan-3-yl)-1-((tetrahydrofuran-2-yl)methyl)-1H-pyrrole-3-carboxamide], the Ki at human CB2R (setting [3]) stood at 0.493 µM. In data set [1], the “Abs (absorbance maximum)” value is recorded as 465 nm, the “Em (emission maximum)” value turned out to be 550 nm and the “QY (quantum yield)” value worked out at 0.30%. Besides, on hCB1R (setting [4]), the Ki is 0.316 µM.

For the compound `CCC(CC)(NC(=O)c1nn(-c2ccc(Cl)cc2Cl)c2c1CCCc1cc(Cl)ccc1-2)C(=O)NCCOCCOCCNC(=O)OC(C)(C)C` [Compound 24, tert-Butyl (1-(8-Chloro-1-(2,4-dichlorophenyl)-1,4,5,6-tetrahydrobenzo[6,7]cyclohepta[1,2-c]pyrazol-3-yl)-3,3-diethyl-1,4-dioxo-8,11-dioxa-2,5-diazatridecan-13-yl)carbamate], the Ki was 0.776 µM on human CB2R (setting [2]) and greater than 10 µM at hCB1R (setting [5]). In addition, the “hCB1R % displacement at 10 µM” value at hCB1R is reported as 28 ± 3%.

For `CCC(CC)(NC(=O)c1cnc(OCCOC)c(-c2ccc(Cl)cc2)n1)C(=O)NCCOCCOCCNc1ccc([N+](=O)[O-])c2nonc12` [Compound 34, 6-(4-Chlorophenyl)-5-(2-methoxyethoxy)-N-(3-((2-(2-(2-((7-nitrobenzo[c][1,2,5]oxadiazol-4-yl)amino)ethoxy)ethoxy)ethyl)carbamoyl)pentan-3-yl)pyrazine-2-carboxamide], the Ki on human CB2R (CHO membranes, read-out: hCB2R pKi ± SEM (converted)) was 0.708 µM. In data set [1], the “Abs (absorbance maximum)” value is 480 nm, the “Em (emission maximum)” value is listed as 545 nm and the “QY (quantum yield)” value was 2.00%. Moreover, the “hCB1R % displacement at 10 µM” value on hCB1R was 32 ± 6%. For the same compound, at hCB1R (setting [4]), the Ki is greater than 10 µM.

For the compound `CCC(CC)(NC(=O)c1cnc(OCC2CC2)c(-c2ccc(F)cc2)c1)C(=O)NCCOCCOCCNC(=O)c1ccc2c(c1)C(=O)OC21c2ccc(N(C)C)cc2Oc2cc(N(C)C)ccc21` [Compound 41], at human CB2R, the “hCB2R % displacement at 10 µM” value is given as 27 ± 3% and the “Binding to CB2R (in words)” value is listed as “did not bind”. Further, the Ki on human CB2R (setting [3]) is greater than 10 µM. In data set [1], the “Abs (absorbance maximum)” value is listed as 560 nm, the “Em (emission maximum)” value is given as 585 nm and the “QY (quantum yield)” value was found to be 47.40%. Besides, on hCB1R, the “hCB1R % displacement at 10 µM” value is listed as 9 ± 1% and the “Binding to CB1R (in words)” value is recorded as “did not bind”. In addition, the Ki at hCB1R (setting [4]) was greater than 10 µM.

Consider `CCC(CC)(NC(=O)c1nn(Cc2cccc(F)c2)c2ccccc12)C(=O)NCCOCCOCCNc1ccc([N+](=O)[O-])c2nonc12` [Compound 36, 1-(3-Fluorobenzyl)-N-(3-((2-(2-(2-((7-nitrobenzo[c][1,2,5]oxadiazol-4-yl)amino)ethoxy)ethoxy)ethyl)carbamoyl)pentan-3-yl)-1H-indazole-3-carboxamide], for which the Ki on human CB2R (setting [2]) stood at 0.079 µM. In data set [1], the “Abs (absorbance maximum)” value turned out to be 475 nm, the “Em (emission maximum)” value amounted to 565 nm and the “QY (quantum yield)” value is 1.50%. On hCB1R (setting [5]), the Ki came to 1.17 µM.

In the case of `CCC(CC)(NC(=O)c1nn(-c2ccc(Cl)cc2Cl)c(-c2ccc(Cl)cc2)c1C)C(=O)NCCOCCOCCOCCNC(=O)OC(C)(C)C` [Compound 23c, tert-Butyl (1-(5-(4-Chlorophenyl)-1-(2,4-dichlorophenyl)-4-methyl-1H-pyrazol-3-yl)-3,3-diethyl-1,4-dioxo-8,11,14-trioxa-2,5-diazahexadecan-16-yl)carbamate], the Ki was 2.12 µM at human CB2R (setting [2]) and 0.397 µM at hCB1R (setting [5]).

With `CCC(CC)(NC(=O)c1cnc(OCCOC)c(-c2ccc(Cl)cc2)n1)C(=O)NCCOCCOCCNC(=O)c1ccc2c(c1)C(=O)OC21c2ccc(N(C)C)cc2Oc2cc(N(C)C)ccc21` [Compound 35], on human CB2R, the “hCB2R % displacement at 10 µM” value stood at 2 ± 0% and the “Binding to CB2R (in words)” value is “did not bind”. In addition, at human CB2R (setting [3]), the Ki was greater than 10 µM. Also, in data set [1], the “Abs (absorbance maximum)” value was found to be 560 nm, the “Em (emission maximum)” value worked out at 590 nm and the “QY (quantum yield)” value was determined as 56.20%. Also, at hCB1R, the “hCB1R % displacement at 10 µM” value was -6 ± 5% and the “Binding to CB1R (in words)” value is given as “did not bind”. Also, the Ki on hCB1R (setting [4]) was greater than 10 µM.

Compound `CCC(CC)(NC(=O)c1nn(-c2ccc(Cl)cc2Cl)c2c1CCCc1cc(Cl)ccc1-2)C(=O)NCCOCCOCCNc1ccc([N+](=O)[O-])c2nonc12` [Compound 32, 8-Chloro-1-(2,4-dichlorophenyl)-N-(3-((2-(2-(2-((7-nitrobenzo[c][1,2,5]oxadiazol-4-yl)amino)ethoxy)ethoxy)ethyl)carbamoyl)pentan-3-yl)-1,4,5,6-tetrahydrobenzo[6,7]cyclohepta[1,2-c]pyrazole-3-carboxamide] returned a Ki at human CB2R (setting [2]) of 0.309 µM. Further, in data set [1], the “Abs (absorbance maximum)” value worked out at 485 nm, the “Em (emission maximum)” value stood at 570 nm and the “QY (quantum yield)” value stood at 1.30%. Also, the “hCB1R % displacement at 10 µM” value at hCB1R is reported as 35 ± 6%. Further, the Ki on hCB1R (setting [5]) was greater than 10 µM.

As to `CCC(CC)(NC(=O)c1cc(-c2cc(C(F)(F)F)ccc2C(F)(F)F)n(C[C@H]2CCCO2)c1C)C(=O)NCCOCCOCCOCCNC(=O)OC(C)(C)C` [Compound 22c, tert-Butyl (R)-(1-(5-(2,5-Bis(trifluoromethyl)phenyl)-2-methyl-1-((tetrahydrofuran-2-yl)methyl)-1H-pyrrol-3-yl)-3,3-diethyl-1,4-dioxo-8,11,14-trioxa-2,5-diazahexadecan-16-yl)carbamate], the “hCB2R % displacement at 10 µM” value on human CB2R is given as 23 ± 5%. The Ki at human CB2R (setting [3]) is greater than 10 µM; at hCB1R (setting [4]), 1.22 µM.

For the compound `CCC(CC)(NC(=O)c1cnc(OCCOC)c(-c2ccc(Cl)cc2)n1)C(=O)NCCOCCOCCNC(=O)OC(C)(C)C` [Compound 26, tert-Butyl (1-(6-(4-Chlorophenyl)-5-(2-methoxyethoxy)pyrazin-2-yl)-3,3-diethyl-1,4-dioxo-8,11-dioxa-2,5-diazatridecan-13-yl)carbamate], the Ki at human CB2R (setting [3]) was 0.701 µM; at hCB1R (setting [4]), greater than 10 µM. For the same compound, the “hCB1R % displacement at 10 µM” value on hCB1R was found to be 32 ± 6%.

For the compound `CCC(CC)(NC(=O)c1cc(-c2cc(C(F)(F)F)ccc2C(F)(F)F)n(C[C@H]2CCCO2)c1C)C(=O)NCCOCCNC(=O)OC(C)(C)C` [Compound 22a, tert-Butyl (R)-(2-(2-(2-(5-(2,5-Bis(trifluoromethyl)phenyl)-2-methyl-1-((tetrahydrofuran-2-yl)methyl)-1H-pyrrole-3-carboxamido)-2-ethylbutanamido)ethoxy)ethyl)carbamate], the “hCB2R % displacement at 10 µM” value at human CB2R is 20 ± 3%. For the same compound, the Ki at human CB2R (setting [3]) is greater than 10 µM; on hCB1R (setting [4]), 1.42 µM.

`CCC(CC)(NC(=O)c1nn(-c2ccc(Cl)cc2Cl)c(-c2ccc(Cl)cc2)c1C)C(=O)NCCOCCOCCOCCOCCNC(=O)OC(C)(C)C` [Compound 23d, tert-Butyl (1-(5-(4-Chlorophenyl)-1-(2,4-dichlorophenyl)-4-methyl-1H-pyrazol-3-yl)-3,3-diethyl-1,4-dioxo-8,11,14,17-tetraoxa-2,5-diazanonadecan-19-yl)carbamate]: the figures for the Ki on human CB2R (setting [2]) and on hCB1R (setting [5]) were 2.12 µM and 0.603 µM, respectively.

`CCC(CC)(NC(=O)c1nn(Cc2cccc(F)c2)c2ccccc12)C(=O)NCCOCCOCCNC(=O)OC(C)(C)C` [Compound 27, tert-Butyl (3,3-Diethyl-1-(1-(3-fluorobenzyl)-1H-indazol-3-yl)-1,4-dioxo-8,11-dioxa-2,5-diazatridecan-13-yl)carbamate]: the Ki on human CB2R (setting [2]) is 0.108 µM; on hCB1R (setting [5]) it was greater than 10 µM. In addition, the “hCB1R % displacement at 10 µM” value at hCB1R was 48 ± 2%.

In the case of `CCC(CC)(NC(=O)c1cnc(OCC2CC2)c(-c2ccc(F)cc2)c1)C(=O)NCCOCCOCCNC(=O)OC(C)(C)C` [Compound 25, tert-Butyl (1-(6-(Cyclopropylmethoxy)-5-(4-fluorophenyl)pyridin-3-yl)-3,3-diethyl-1,4-dioxo-8,11-dioxa-2,5-diazatridecan-13-yl)carbamate], the Ki was 0.818 µM on human CB2R (setting [2]); 3.06 µM on hCB1R (setting [5]); 3.02 µM at hCB1R (hCB1R pKi ± SEM, CHO membranes).

The values are drawn from PMC11284800 (Journal of Medicinal Chemistry, 2024).
